In PMC10471729, “Luvadaxistat: A Novel Potent and Selective D-Amino Acid Oxidase Inhibitor Improves Cognitive and Social Deficits in Rodent Models for Schizophrenia” (Neurochemical Research, 2023):

Molecular target: T1, D-amino acid oxidase (DAAO) (Mus musculus, UniProt P18894)
T1 construct: gene Dao
Assay: cell-based

T1 sequence (P18894 whole entry): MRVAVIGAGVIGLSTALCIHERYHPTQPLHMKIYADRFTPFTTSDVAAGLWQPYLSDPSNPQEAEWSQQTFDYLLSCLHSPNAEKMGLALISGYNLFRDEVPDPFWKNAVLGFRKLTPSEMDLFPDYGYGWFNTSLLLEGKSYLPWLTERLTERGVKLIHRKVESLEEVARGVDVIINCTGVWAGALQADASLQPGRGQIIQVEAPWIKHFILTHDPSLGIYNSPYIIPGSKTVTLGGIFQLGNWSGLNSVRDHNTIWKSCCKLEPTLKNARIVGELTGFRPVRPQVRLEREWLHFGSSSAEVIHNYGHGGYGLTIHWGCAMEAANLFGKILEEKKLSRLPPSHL

Structure (SMILES): O=c1[nH]nc(CCc2ccc(C(F)(F)F)cc2)cc1O [luvadaxistat]
- IC50: 5.1 nM
